Literature values, collected in PMC6311893, “Computational prediction of plasma protein binding of cyclic peptides from small molecule experimental data using sparse modeling techniques” (BMC Bioinformatics, 2018).

System: plasma protein
Conditions: fraction bound to plasma protein; small molecule dataset, sheet 1-SM (Set Dte = test, Dtr = training); ref Ingle et al.; cited from earlier work

Molecule	PPB (fb)
CNCCCC1c2ccccc2C=Cc2ccccc21 [protriptyline]	0.92
NCC(CC(=O)O)c1ccc(Cl)cc1 (centres unmarked) [baclofen]	0.3
CNC[C@H](O)c1cccc(O)c1 [phenylephrine]	0.51
COc1ccc(O)cc1C(C)(C)C [2-butyl-4-hydroxyanisole]	0.85
CCC1(c2ccccc2)NC(=O)N(C)C1=O (centres unmarked) [mephenytoin]	0.4
O=C(O[C@@H]1C[C@@H]2C[C@H]3C[C@H](C1)N2CC3=O)c1c[nH]c2ccccc12 [dolasetron]	0.7
CC1(C)SC2C(NC(=O)C(Cl)c3cccc(Cl)c3)C(=O)N2C1C(=O)O (centres unmarked) [penicillin23]	0.94
C#CC1(O)CC[C@H]2[C@@H]3CCC4=CC(=O)CC[C@@H]4[C@H]3CC[C@@]21CC (some centres unmarked) [norgestrel]	0.97

Same assay, conditions: fraction bound to plasma protein; small molecule dataset, sheet 1-SM, Set Dtr; ref Ingle et al.; cited from earlier work

Molecule	PPB (fb)
Oc1ncnc2[nH]ncc12 [Allopurinol]	0.02
Cc1cccc([C@H](C)c2cnc[nH]2)c1C [Dexmedetomidine]	0.94
CC(=O)OCC1=C(C(=O)O)N2C(=O)[C@@H](NC(=O)Cc3cccs3)[C@H]2SC1 [Cephalothin]	0.73
CC[C@H]1OC(=O)[C@H](C)[C@@H](O[C@H]2C[C@@](C)(OC)[C@@H](O)[C@H](C)O2)[C@H](C)[C@@H](O[C@@H]2O[C@H](C)C[C@H](N(C)C)[C@H]2O)[C@](C)(O)C[C@@H](C)CN(C)[C@H](C)[C@@H](O)[C@]1(C)O [Azithromycin]	0.23
CN1Cc2c(N)cccc2C(c2ccccc2)C1 (centres unmarked) [Nomifensine]	0.63
CC(CN1c2ccccc2Sc2ccccc21)N(C)C (centres unmarked) [Promethazine]	0.88
CN(C)CCCC1(c2ccc(F)cc2)OCc2cc(C#N)ccc21 (centres unmarked) [Citalopram]	0.68
CO[C@@]1(NC(=O)C(C(=O)O)c2ccc(O)cc2)C(=O)N2C(C(=O)O)=C(CSc3nnnn3C)CO[C@@H]21 (some centres unmarked) [Moxalactam]	0.53
COc1ccnc(C[S+]([O-])c2nc3ccc(OC(F)F)cc3[nH]2)c1OC (centres unmarked) [Pantoprazole]	0.98
C=C[C@H]1C[N@@]2CC[C@H]1C[C@H]2[C@H](O)c1ccnc2ccc(OC)cc12 [Quinine]	0.81
COc1ccccc1N1CCN(CCCNc2cc(=O)n(C)c(=O)n2C)CC1 [urapidil]	0.8
CC(C)(C)NCC(O)c1ccc(O)c(CO)c1 (centres unmarked) [Albuterol (salbutamol)]	0.09
CN(C)CCc1c[nH]c2ccc(CS(=O)(=O)N3CCCC3)cc12 [Almotriptan]	0.37
CC(=O)NC(CS)C(=O)O (centres unmarked) [Acetylcysteine__ N-]	0.83
CCCCc1nc(Cl)c(CO)n1Cc1ccc(-c2ccccc2-c2nn[nH]n2)cc1 [Losartan]	0.99

Same assay, conditions: fraction bound to plasma protein; small molecule dataset, sheet 1-SM; ref Ingle et al.; cited from earlier work

Molecule	PPB (fb)
CO[C@H]1/C=C/O[C@@]2(C)Oc3c(C)c(O)c4c(O)c(c(/C=N/N5CCN(C)CC5)c(O)c4c3C2=O)NC(=O)/C(C)=C\C=C\[C@H](C)[C@H](O)[C@@H](C)[C@@H](O)[C@@H](C)[C@H](OC(C)=O)[C@@H]1C [Rifampin]	0.77
OC(c1cc(C(F)(F)F)nc2c(C(F)(F)F)cccc12)C1CCCCN1 (centres unmarked) [mefloquine]	0.97
CC(C(=O)O)c1ccc(N2Cc3ccccc3C2=O)cc1 (centres unmarked) [indoprofen]	0.99
CO[C@H]1/C=C/O[C@@]2(C)Oc3c(C)c(O)c4c(O)c(c(/C=N/N5CCN(C6CCCC6)CC5)c(O)c4c3C2=O)NC(=O)/C(C)=C\C=C\[C@H](C)[C@H](O)[C@@H](C)[C@@H](O)[C@@H](C)[C@H](OC(C)=O)[C@@H]1C [Rifapentine]	0.93
CC(Cc1ccc(C(C)C(=O)NS(C)(=O)=O)cc1)C(=O)O (centres unmarked) [JMC_10]	0.7
COC(C(=O)NC1C(=O)N2C1SC(C)(C)C2C(=O)O)c1ccccc1 (centres unmarked) [penicillin38]	0.62
COC1=C(OC)C(=O)C(CCCCCCCCCCO)=C(C)C1=O [idebenone]	0.9
CN[C@@H]1[C@@H](O)[C@@H](O[C@@H]2[C@@H](O)[C@H](O[C@H]3OC(CN)=CC[C@H]3N)[C@@H](N)C[C@H]2N)OC[C@]1(C)O [Sisomicin]	0.85
O=C(O)/C=C/c1ccc(O)cc1 [p-coumaric acid]	0.65
CC1CCN(CCCC(=O)c2ccc(F)cc2)CC1 [melperone]	0.5
Cc1ccc(S(=O)(=O)NC(=O)NN2CC3CCCC3C2)cc1 (centres unmarked) [gliclazide]	0.91
C#C[C@]1(O)CC[C@H]2[C@@H]3CCC4=CC(=O)CC[C@@H]4[C@H]3CC[C@@]21C [norethisterone]	0.8
COc1ccccc1Oc1c(NS(=O)(=O)c2ccc(C(C)C)cn2)nc(-c2ccnc(-c3nnn[nH]3)c2)nc1OCCO [Tezosentan]	0.99
O=P(O)(O)C(O)(Cn1ccnc1)P(=O)(O)O [Zoledronic Acid]	0.22
C#CCCCC(=O)c1cc(C(C)(C)C)c(O)c(C(C)(C)C)c1 [tebufelone]	0.99
CCN1CCC[C@H]1CNC(=O)c1c(OC)ccc(Br)c1OC [Remoxipride]	0.79
CCOCCC(=O)NC1C(=O)N2C1SC(C)(C)C2C(=O)O (centres unmarked) [penicillin11]	0.25
CC(C)NCC(O)c1ccc(NS(C)(=O)=O)cc1 (centres unmarked) [Sotalol]	0.28
CC1(C)SC2C(NC(=O)C(Oc3ccccc3)c3ccccc3)C(=O)N2C1C(=O)O (centres unmarked) [penicillin51]	0.97
CCC(COc1c(Cl)cccc1Cl)C(=O)NC1C(=O)N2C1SC(C)(C)C2C(=O)O (centres unmarked) [penicillin63]	0.95
CO[C@H]1C[C@@H]2CC[C@@H](C)[C@@](O)(O2)C(=O)C(=O)N2CCCC[C@H]2C(=O)O[C@H]([C@H](C)C[C@@H]2CC[C@@H](O)[C@H](OC)C2)CC(=O)[C@H](C)/C=C(\C)[C@@H](O)[C@@H](OC)C(=O)[C@H](C)C[C@H](C)/C=C/C=C/C=C/1C [sirolimus]	0.92

Same assay, conditions: plasma; cited from earlier work

Molecule	PPB (fb)
O=C1OC(c2ccc(O)c(S(=O)(=O)O)c2)(c2ccc(O)c(S(=O)(=O)O)c2)c2c(Br)c(Br)c(Br)c(Br)c21 [sulfobromophthalein]	0.99
Nc1c2c(nc3ccccc13)CCCC2 [Tacrine]	0.65
Brotizolam	0.9
C[C@@H]1O[C@@H](O[C@H]2C[C@@H](O)[C@]3(CO)[C@H]4[C@H](O)C[C@]5(C)[C@@H](C6=CC(=O)OC6)CC[C@]5(O)[C@@H]4CC[C@]3(O)C2)[C@H](O)[C@H](O)[C@H]1O [ouabain]	0
Cc1ncc2n1-c1ccc(Cl)cc1C(c1ccccc1F)=NC2 [Midazolam]	0.97
CCC(C)C1(CC)C(=O)NC(=O)NC1=O (centres unmarked) [secbutabarbital]	0.26
Nicardipine	0.98
O=[N+]([O-])OCC(CO[N+](=O)[O-])O[N+](=O)[O-] [nitroglycerin]	0.6
O=C(O)c1cc(O)c(O)c(O)c1 [gallic acid]	0.32
CCC(=O)O[C@](Cc1ccccc1)(c1ccccc1)[C@H](C)CN(C)C [Propoxyphene]	0.75
Oc1cc(O)c2c(c1)O[C@H](c1ccc(O)c(O)c1)[C@H](O)[C@H]2c1c(O)cc(O)c2c1O[C@H](c1ccc(O)c(O)c1)[C@@H](O)C2 [procyanidin B1]	0.73
flurazepam	0.97
